We go through three compounds from EP1089755B1, “PHARMACEUTICAL PREPARATIONS FOR USE IN COMBATTING OR PREVENTING SURFACE INFECTIONS CAUSED BY MICROORGANISMS” (priority 1998, dated 2000).

For test [1], the system named is C. glabrata Y110. Description: MIC of antifungal agents (96-well turbidity assay, 24 hours). In kind it is cell-based. The following applies: for MIC: Nakaseomyces glabratus, Y110, 24 h, read-out: minimum inhibitory concentrations (MIC).
The test system of another test is C. tropicana Y140. The description is as above. In kind it is cell-based. Particulars: isolate Y140 (RPMI), RPMI-medium instead of SLM, read-out: minimum inhibitory concentrations (MIC).
For another test, the system named is C. albicans Y106. The test is described as above. The format is cell-based. The following applies: Candida albicans, isolate Y106, SLM, read-out: minimum inhibitory concentrations (MIC).
Another test has as its system C. glabrata Y111. The test is described as above. The format is cell-based. The following applies: Nakaseomyces glabratus, isolate Y111, SLM, read-out: minimum inhibitory concentrations (MIC).
The next test relates to C. albicans ATCC 10231. Described as above. In kind it is cell-based. Particulars: Candida albicans, isolate 10231 (ATCC strain), SLM, read-out: minimum inhibitory concentrations (MIC).
The subject of the next test is C. glabrata Y112. The test is described as above. In kind it is cell-based. Particulars: Nakaseomyces glabratus, isolate Y112, SLM, read-out: minimum inhibitory concentrations (MIC).
A further test concerns C. albicans Y127. The description is as above. In kind it is cell-based. The following applies: isolate Y127, SLM; for MIC: Candida albicans, read-out: minimum inhibitory concentrations (MIC).
The next test concerns C. albicans Y098. The description is as above. The format is cell-based. The following applies: Candida albicans, isolate Y098, SLM, read-out: minimum inhibitory concentrations (MIC).
In test [2] the test system is C. glabrata Y110. Kind of test: Synergy experiments (8 by 8 dilution matrix, Prichard and Shipman method). The format is cell-based, Candida glabrata.
The test system of test [3] is C. glabrata Y110. Description: Candida growth inhibition and MIC at several pH's in SLM or RPMI (96-well turbidity assay). The format is cell-based, Candida glabrata. Particulars: for MIC: Nakaseomyces glabratus, read-out: minimal inhibitory concentrations (MIC).
The test system of the next test is Candida glabrata Y110. Kind of test: MIC in the presence of saliva (SLM or SLM/Saliva, pH 7.5). The format is cell-based. Particulars: Nakaseomyces glabratus.

In brackets after ≈: the same amount, converted by molar mass.

As for `Nc1nc(=O)[nH]cc1F` [5-Fluorocytosine, 5-fluorocytosine], the MIC in the test on C. glabrata Y110 [1] (isolate Y110 (RPMI), RPMI-medium instead of SLM) was found to be 0.029 ± 0.005 µg/mL; in the test on C. tropicana Y140, 35 ± 7.07 µg/mL.

Regarding `C[C@@H]1[C@H](O)[C@@H](C)/C=C/C=C/C=C/C=C/C=C/C=C/C=C/[C@H](O[C@@H]2O[C@H](C)[C@@H](O)[C@H](N)[C@@H]2O)C[C@@H]2O[C@](O)(C[C@@H](O)C[C@@H](O)[C@H](O)CC[C@@H](O)C[C@@H](O)CC(=O)O[C@H]1C)C[C@H](O)[C@H]2C(=O)O` [Amphoterricin B, Amphotericin B], the MIC in the test with C. albicans Y106 amounted to 0.082 ± 0.03 µg/mL; in the test on C. glabrata Y111 it was 0.14 ± 0.07 µg/mL; in the test on C. albicans ATCC 10231, 0.06 ± 0.05 µg/mL; in the test with C. glabrata Y112 it was 0.4 ± 0.05 µg/mL; in the test with C. glabrata Y110 [1] (isolate Y110, SLM) it was 0.173 ± 0.06 µg/mL; with C. albicans Y127, 0.15 µg/mL. Besides, the MIC in the test on C. albicans Y098 came to 0.08 ± 0.03 µg/mL. The “minimum inhibitory concentrations (MIC)” value in the test on C. albicans Y127 is 0.15 ± 0.07 µg/mL.

In the case of `OC(Cn1cncn1)(Cn1cncn1)c1ccc(F)cc1F` [Fluconazole, fluconazole], the MIC in the test on C. albicans Y106 stood at 10 µg/mL; with C. glabrata Y111, 24 ± 7 µg/mL; in the test with C. glabrata Y110 [1] (isolate Y110, SLM) it was 159 µg/mL; in the test with C. albicans Y127 it was 10 µg/mL; in the test with C. glabrata Y110 [3] (Y110, RPMI, pH 5.0, 24 hours) it was 250 µg/mL (≈ 816 µM); in the test with C. glabrata Y110 [3] (Y110, RPMI, pH 6.0, 24 hours) it was 110 µg/mL (≈ 359 µM). Besides, the MIC in the test with C. glabrata Y110 [3] (Y110, RPMI, pH 7.0, 24 hours) came to 60 µg/mL (≈ 196 µM); in the test with C. glabrata Y110 [3] (Y110, SLM, pH 5.6, 24 hours), 200 µg/mL (≈ 653 µM); in the test on C. glabrata Y110 [3] (Y110, SLM, pH 6.5, 24 hours), 100 µg/mL (≈ 327 µM); in the test with C. glabrata Y110 [3] (Y110, SLM, pH 7.5, 24 hours), 100 µg/mL (≈ 327 µM); in the test with Candida glabrata Y110 (Y110, SLM, pH 7.5), 100 µg/mL; in the test on Candida glabrata Y110 (Y110, SLM/Saliva (50%/50%), 24 hours), 40 µg/mL. Moreover, in the test with Candida glabrata Y110 (Y110, SLM, pH 7.5, 24 hours), the MIC turned out to be 100 µg/mL. In addition, the UV is 1.150 in the test on C. glabrata Y110 [2] (Fluconazole 0.0033 mg/ml alone); 1.167 in the test on C. glabrata Y110 [2] (Fluconazole 0.0066 mg/ml alone); 1.154 in the test on C. glabrata Y110 [2] (Fluconazole 0.01 mg/ml alone); 1.127 in the test with C. glabrata Y110 [2] (Fluconazole 0.033 mg/ml alone); 0.618 in the test with C. glabrata Y110 [2] (Fluconazole 0.1 mg/ml alone); 0.003 with C. glabrata Y110 [2] (Fluconazole 0.2 mg/ml alone). The UV stood at 0.003 with C. glabrata Y110 [2] (Fluconazole 0.33 mg/ml alone) and 0.004 in the test with C. glabrata Y110 [2] (Fluconazole 0.5 mg/ml alone). In addition, in the test with C. glabrata Y110 [2] (Nakaseomyces glabratus, Y110, Fluconazole 0.0033 mg/ml alone), the inhibition at 3.3 µg/mL worked out at 0%. In the test with C. glabrata Y110 [2] (Nakaseomyces glabratus, Y110, Fluconazole 0.0066 mg/ml alone), the inhibition at 6.6 µg/mL worked out at 0%. For the same compound, the inhibition at 10 µg/mL in the test on C. glabrata Y110 [2] (Nakaseomyces glabratus, Y110, Fluconazole 0.01 mg/ml alone) turned out to be 0%. Moreover, the inhibition at 33 µg/mL in the test on C. glabrata Y110 [2] (Nakaseomyces glabratus, Y110, Fluconazole 0.033 mg/ml alone) worked out at 0%. Besides, the inhibition at 100 µg/mL with C. glabrata Y110 [2] (Nakaseomyces glabratus, Y110, Fluconazole 0.1 mg/ml alone) turned out to be 39.5%. Moreover, the inhibition at 200 µg/mL in the test with C. glabrata Y110 [2] (Nakaseomyces glabratus, Y110, Fluconazole 0.2 mg/ml alone) worked out at 99.8%. In addition, in the test with C. glabrata Y110 [2] (Nakaseomyces glabratus, Y110, Fluconazole 0.33 mg/ml alone), the inhibition at 330 µg/mL is 99.8%. For the same compound, the inhibition at 500 µg/mL with C. glabrata Y110 [2] (Nakaseomyces glabratus, Y110, Fluconazole 0.5 mg/ml alone) came to 99.6%. In addition, the “minimum inhibitory concentrations (MIC)” value in the test on C. glabrata Y110 [1] (isolate Y110, SLM) worked out at 156 ± 50 µg/mL. Moreover, in the test on C. glabrata Y110 [3] (SLM and RPMI), the “effect of an increase in pH of the medium on inhibition” value is recorded as “more efficient inhibition”.

What is called inhibition is the share of the control response that was lost under treatment.
